Measured values taken from the supplement of paper PMC11451515.

System: NOMO1
Experiment: cell viability relative to DMSO control; higher = less cytotoxic
Details: 48 h
Method in brief: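 Cells were incubated for 48 h at 37°C before CellTiter-Glo One luminescence was read. The cells were NOMO1 or SEM (500 cells/well) or P12-Ichikawa (1000 cells/well) leukemia cells, adapted for at least four passages in each medium and seeded in 1536-well plates (5 μl). Dosing used library compounds in DMSO applied by pin over 11 threefold points, 47 μM to 0.79 nM. Viability is the per-plate percentage of DMSO wells, with cell-free wells as background.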

[1] = HPLM + 10% dialyzed FBS, 0.000781 µM
[2] = HPLM + 10% dialyzed FBS, 0.00234 µM
[3] = HPLM + 10% dialyzed FBS, 0.00702 µM
[4] = HPLM + 10% dialyzed FBS, 0.0211 µM
[5] = HPLM + 10% dialyzed FBS, 0.0632 µM
[6] = HPLM + 10% dialyzed FBS, 0.19 µM
[7] = HPLM + 10% dialyzed FBS, 0.569 µM
[8] = HPLM + 10% dialyzed FBS, 1.71 µM
[9] = HPLM + 10% dialyzed FBS, 5.12 µM
[10] = HPLM + 10% dialyzed FBS, 15.4 µM
[11] = HPLM + 10% dialyzed FBS, 46.1 µM
[12] = RPMI 5 mM glucose + 10% FBS, 0.000781 µM
[13] = RPMI 5 mM glucose + 10% FBS, 0.00234 µM
[14] = RPMI 5 mM glucose + 10% FBS, 0.00702 µM
[15] = RPMI 5 mM glucose + 10% FBS, 0.0211 µM
[16] = RPMI 5 mM glucose + 10% FBS, 0.0632 µM
[17] = RPMI 5 mM glucose + 10% FBS, 0.19 µM
[18] = RPMI 5 mM glucose + 10% FBS, 0.569 µM
[19] = RPMI 5 mM glucose + 10% FBS, 1.71 µM
[20] = RPMI 5 mM glucose + 10% FBS, 5.12 µM
[21] = RPMI 5 mM glucose + 10% FBS, 15.4 µM
[22] = RPMI 5 mM glucose + 10% FBS, 46.1 µM
[23] = RPMI 5 mM glucose + 10% dialyzed FBS, 0.000781 µM
[24] = RPMI 5 mM glucose + 10% dialyzed FBS, 0.00234 µM
[25] = RPMI 5 mM glucose + 10% dialyzed FBS, 0.00702 µM
[26] = RPMI 5 mM glucose + 10% dialyzed FBS, 0.0211 µM
[27] = RPMI 5 mM glucose + 10% dialyzed FBS, 0.0632 µM
[28] = RPMI 5 mM glucose + 10% dialyzed FBS, 0.19 µM
[29] = RPMI 5 mM glucose + 10% dialyzed FBS, 0.569 µM
[30] = RPMI 5 mM glucose + 10% dialyzed FBS, 1.71 µM
[31] = RPMI 5 mM glucose + 10% dialyzed FBS, 5.12 µM
[32] = RPMI 5 mM glucose + 10% dialyzed FBS, 15.4 µM
[33] = RPMI 5 mM glucose + 10% dialyzed FBS, 46.1 µM

Row | Compound | cell viability [1] | cell viability [2] | cell viability [3] | cell viability [4] | cell viability [5] | cell viability [6] | cell viability [7] | cell viability [8] | cell viability [9] | cell viability [10] | cell viability [11] | cell viability [12] | cell viability [13] | cell viability [14] | cell viability [15] | cell viability [16] | cell viability [17] | cell viability [18] | cell viability [19] | cell viability [20] | cell viability [21] | cell viability [22] | cell viability [23] | cell viability [24] | cell viability [25] | cell viability [26] | cell viability [27] | cell viability [28] | cell viability [29] | cell viability [30] | cell viability [31] | cell viability [32] | cell viability [33]
1 | Cc1c(N)nc([C@H](CC(N)=O)NC[C@@H](N)C(N)=O)nc1C(=O)N[C@H](C(=O)N[C@@H](C)[C@H](O)[C@@H](C)C(=O)N[C@@H](C(=O)NCCc1nc(-c2nc(C(=O)NCCC[S+](C)C)cs2)cs1)[C@@H](C)O)C(O[C@H]1O[C@H](CO)[C@H](O)[C@@H](O)[C@H]1O[C@H]1O[C@H](CO)[C@@H](O)[C@H](OC(N)=O)[C@@H]1O)c1c[nH]cn1 (stereo partly drawn) | 117% | 112% | 128% | 125% | 121% | 128% | 108% | 74% | 40.4% | 57.9% | 85.9% | 101% | 100% | 95% | 98.6% | 110% | 115% | 114% | 71.9% | 41.1% | 72.2% | 79.6% | 119% | 117% | 114% | 132% | 113% | 124% | 138% | 127% | 66% | 85% | 86.7%
2 | Cc1cc(Nc2ncc3c(n2)N(C)C(=O)N(c2cc(NC(=O)c4cccc(C(F)(F)F)c4)ccc2C)C3)n(C)n1 | 90.6% | 134% | 123% | 116% | 134% | 111% | 90.5% | 56.7% | 32.2% | 25.9% | 7.8% | 99.6% | 111% | 132% | 156% | 132% | 130% | 146% | 70.6% | 43.8% | 29.6% | 10.7% | 113% | 115% | 123% | 134% | 134% | 132% | 115% | 60.2% | 38.7% | 32.7% | 17.7%
3 | COc1cc(C(=O)NC2CCN(C)CC2)ccc1Nc1ncc2c(n1)N(C1CCCC1)CCC(=O)N2C(C)C | 103% | 121% | 110% | 122% | 118% | 112% | 115% | 113% | 115% | 58.3% | 9.06% | 99.3% | 105% | 101% | 108% | 102% | 118% | 102% | 107% | 119% | 75.7% | 15.2% | 92.7% | 113% | 100% | 110% | 100% | 106% | 104% | 117% | 109% | 105% | 20.6%
4 | C[S+](=O)([O-])Oc1ccc2c(NC(N)=O)c(C(=O)c3ccc(Cl)cc3Cl)oc2c1 | 115% | 103% | 114% | 113% | 140% | 139% | 127% | 128% | 105% | 100% | 42.7% | 105% | 111% | 104% | 115% | 120% | 119% | 125% | 117% | 115% | 106% | 50.3% | 127% | 111% | 122% | 126% | 119% | 116% | 115% | 128% | 135% | 105% | 76.8%
5 | CCCCCNC(=N)N/N=C/c1c[nH]c2ccc(OC)cc12 | 123% | 121% | 134% | 132% | 137% | 135% | 147% | 137% | 132% | 71.7% | 48.8% | 122% | 122% | 142% | 131% | 145% | 155% | 141% | 129% | 134% | 93.4% | 26.7% | – | – | – | – | – | – | – | – | – | – | –
6 | Clc2cccc(Cl)c2\N=C1/NCCN1 | 117% | 101% | 118% | 105% | 125% | 135% | 121% | 118% | 132% | 128% | 122% | 102% | 113% | 124% | 120% | 112% | 118% | 113% | 124% | 105% | 116% | 111% | 105% | 130% | 109% | 123% | 122% | 121% | 123% | 137% | 120% | 114% | 115%
7 | COc1cc(NCc2ccc3nc(N)nc(N)c3c2C)cc(OC)c1OC | 90.2% | 91.7% | 98.9% | 95.1% | 93.5% | 98.4% | 89.5% | 44.4% | 36% | 34.2% | 15.9% | 79.3% | 88% | 80.9% | 85.7% | 84.7% | 89.3% | 93.5% | 83.2% | 99.6% | 86.9% | 9.99% | 87.2% | 88.5% | 86.2% | 91.1% | 91% | 107% | 94.5% | 81.1% | 68.8% | 37.9% | 16.6%
8 | COC1=CC=C(C=C1)/C2=C(O)/C(=O)C3=C(O)C=C(O)C(=C3O2)CC=C(C)C | 105% | 120% | 122% | 114% | 132% | 117% | 115% | 127% | 124% | 104% | 130% | – | – | – | – | – | – | – | – | – | – | – | – | – | – | – | – | – | – | – | – | – | –
9 | CO[C@H]1/C=C/O[C@@]2(C)Oc3c(C)c(O)c4c(c3C2=O)C2=NC3(CCN(CC(C)C)CC3)NC2=C(NC(=O)/C(C)=C/C=C/[C@H](C)[C@H](O)[C@@H](C)[C@@H](O)[C@@H](C)[C@H](OC(C)=O)[C@@H]1C)C4=O | 117% | 111% | 146% | 135% | 132% | 127% | 138% | 137% | 127% | 113% | 117% | – | – | – | – | – | – | – | – | – | – | – | – | – | – | – | – | – | – | – | – | – | –
10 | COCCn1c2c([n+](Cc3cnccn3)c1C)C(=O)c1ccccc1C2=O | – | – | – | – | – | – | – | – | – | – | – | 127% | 123% | 113% | 112% | 104% | 35.3% | 7.45% | 6.58% | 6.62% | 4.16% | 1.59% | – | – | – | – | – | – | – | – | – | – | –
11 | CCNC(=O)Nc1ccc(Oc2ncnc(N)c2/C=N/OC)cc1Cl | 104% | 113% | 111% | 115% | 109% | 113% | 133% | 125% | 127% | 105% | 111% | 112% | 118% | 114% | 115% | 119% | 113% | 113% | 121% | 118% | 124% | 122% | 90.2% | 113% | 98.1% | 101% | 114% | 109% | 117% | 112% | 103% | 109% | 125%
12 | c1cc(-c2cnn3cc(-c4ccc(OCCN5CCCCC5)cc4)cnc23)ccn1 | 95.4% | 83.7% | 101% | 87.5% | 83.1% | 88.8% | 88.6% | 67.2% | 76.1% | 72.8% | 30.5% | 83.1% | 88.8% | 87.4% | 81.2% | 83.9% | 83.4% | 80.6% | 80.9% | 80.4% | 85.9% | 80.2% | 80.1% | 84.5% | 82.6% | 86.9% | 89.5% | 86.5% | 79.6% | 84% | 78.3% | 80.9% | 74%
13 | OC1=CC=C(C=C1)C/2=C/C3=C(OC2)C=C(O)C=C3 | 118% | 123% | 114% | 111% | 118% | 111% | 100% | 82.8% | 60.9% | 26.3% | 5.22% | 97.2% | 108% | 117% | 99.8% | 108% | 108% | 104% | 93.3% | 89.4% | 23.9% | 9.27% | 108% | 118% | 110% | 109% | 101% | 105% | 111% | 106% | 96.8% | 33.1% | 14.9%
14 | COc1ccc(CCC(=O)c2c(O)cc(O[C@@H]3O[C@H](CO)[C@@H](O)[C@H](O)[C@H]3O[C@@H]3O[C@@H](C)[C@H](O)[C@@H](O)[C@H]3O)cc2O)cc1O | 105% | 138% | 124% | 122% | 120% | 124% | 117% | 102% | 91.2% | 36.1% | 42.7% | 118% | 140% | 114% | 123% | 119% | 119% | 111% | 107% | 114% | 45.2% | 20.7% | 118% | 121% | 119% | 119% | 135% | 116% | 117% | 113% | 110% | 40.2% | 34.4%
15 | NC1=NC(=O)N2CC12 (stereo not drawn) | 82% | 94.5% | 104% | 102% | 107% | 99.3% | 104% | 73.9% | 43.5% | 4.8% | 4.55% | 87.7% | 94.5% | 94.2% | 87.8% | 92.2% | 90.1% | 85.3% | 82.7% | 56.2% | 4.92% | 4.24% | 88.3% | 76.1% | 87.8% | 93.4% | 104% | 101% | 106% | 64.7% | 55.9% | 3.18% | 4.25%
